This assay has as its target T1, glucocerebrosidase (GCase) (Homo sapiens, UniProt P04062).
T1 sequence (P04062 40-536): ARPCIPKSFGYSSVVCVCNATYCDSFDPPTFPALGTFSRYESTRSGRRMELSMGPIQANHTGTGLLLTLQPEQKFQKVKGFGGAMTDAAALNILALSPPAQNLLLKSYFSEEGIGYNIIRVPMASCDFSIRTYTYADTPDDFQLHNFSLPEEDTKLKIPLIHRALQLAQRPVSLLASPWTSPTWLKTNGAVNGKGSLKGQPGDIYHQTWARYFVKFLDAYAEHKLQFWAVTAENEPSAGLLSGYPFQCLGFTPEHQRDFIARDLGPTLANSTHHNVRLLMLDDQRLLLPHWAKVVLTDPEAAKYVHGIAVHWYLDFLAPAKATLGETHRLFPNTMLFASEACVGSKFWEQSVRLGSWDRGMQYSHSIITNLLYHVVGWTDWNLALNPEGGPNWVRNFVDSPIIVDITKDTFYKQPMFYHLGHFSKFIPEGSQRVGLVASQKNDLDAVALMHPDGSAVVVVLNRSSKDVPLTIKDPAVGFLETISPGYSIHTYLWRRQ
Kind of assay: Glucocerebrosidase activation (Table 1, Exemplary Compounds and Activities). The format is biochemical. The settings on record: activation of glucocerebrosidase; for Emax: read-out: Maximum Activation (Emax). An excerpt:
The compounds disclosed herein preferably modulate activity of glucocerebrosidase. Modulation may include inhibiting or decreasing glucocerebrosidase activity. Modulation also may include activating or increasing glucocerebrosidase activity. Glucocerebrosidase activity may be assessed utilizing methods known in the art and the methods disclosed herein, including the methods disclosed in the Examples provided herein. In some embodiments, the compounds decrease or increase glucocerebrosidase activity relative to a control (e.g., by at least about 10%, 20%, 30%, 40%, 50%, 60%, 70%, 80%, 90%, 100%, 200%, 300%, 400%, 500%, 600%, 700%, 800%, 900%, 1000% or more (or within a range bounded by any of these values)). In other embodiments, the compounds activate glucocerebrosidase greater than about 2-fold, 3-fold, 4-fold, 5-fold, 10-fold, 20-fold, 30-fold, 40-fold, 50-fold, 60-fold, 70-fold, 80-fold, 90-fold, or 100-fold, relative to a control. […] In other embodiments, an AC50 value for the compound in regard to activation of glucocerebrosidase may be determined and preferably the compound has an AC50 value of less than about 10 μM, 5 μM, or 1 μM, 0.5 μM, 0.1 μM, 0.05 μM, 0.01 μM, 0.005 μM, or 0.001 μM (or within a range bounded by any of these values).
Methods for measuring glucocerebrosidase activity are known in the art. (See, e.g., U.S. Publication No. 2017/0001976 and U.S. Publication No. 2017/0002013 and Zheng et al. “Design and Synthesis of Potent Quinazolines as Selective β-Glucocerebrosidase Modulators, J. Med. Chem. 2016 September 22; 59(18): 8508-8520; the contents of which are incorporated herein by reference in their entireties).
The disclosed pyrrolopyrimidine compounds were synthesized and tested using the methods described below. Additional methods for synthesizing and testing pyrrolopyrimidine compounds are described in the art. (See, e.g., Zheng et al., β-Glucocerebrosidase Modulators Promote Dimerization of β-Glucocerebrosidase and Reveal an Allosteric Binding Site, J. Am. Chem. Soc., 2018, 140 (18), pp 5914-5924; and U.S. Pat. No. 9,802,942; the contents of which are incorporated herein by reference in their entireties).

Broadly, the AC50 is the concentration giving half of the maximal activity seen. Lower therefore signals activity at low concentration. Usually Emax stands for the greatest response seen or fitted, relative to the assay's reference. Take `Cc1cc(C)n2ccc(C(=O)Nc3cccc(CC(=O)ON4C(=O)CCC4=O)c3)c2n1` [compound 3, 2,5-dioxopyrrolidin-1-yl 2-(3-(2,4-dimethylpyrrolo[1,2-a]pyrimidine-8-carboxamido)phenyl)acetate]: the AC50 amounted to 9.09 µM and the Emax was 500%. With `COC(=O)CCc1cccc(NC(=O)c2ccn3c(C)cc(C)nc23)c1` [compound 34], the AC50 was determined as 3.55 µM and the Emax came to 578%. For the molecule `Cc1cc(C)n2ccc(C(=O)NCc3ccccc3CNC(=O)c3ccn4c(C)cc(C)nc34)c2n1` [compound 42], the activity was half-maximal at 5 µM (AC50) and the Emax was determined as 715%.

`CCOC(=O)Cc1ccc(NC(=O)c2ccn3c(C)cc(C)nc23)cc1` [compound 20]: the AC50 turned out to be 6.1 µM and the Emax turned out to be 550%. Turning to `C=CC(=O)Nc1cccc(NC(=O)c2ccn3c(C)cc(C)nc23)c1` [compound 14], the AC50 was 6.46 µM. With `COC(=O)Cc1cc(NC(=O)c2ccn3c(C)cc(C)nc23)ccc1-c1cn(CCOCCOCCO)nn1` [compound 39], the AC50 came to 10 µM. Turning to `Cc1cc(C)n2ccc(C(=O)Nc3ccc(CC(=O)O)cc3)c2n1` [compound 22], the AC50 was found to be 35.5 µM and the Emax is 429%.

`Cc1cc(C)n2ccc(C(=O)Nc3cccc(NC(=O)CCl)c3)c2n1` [compound 8]: the AC50 turned out to be 3.43 µM and the Emax was determined as 480%. As to `Cc1cc(C)n2ccc(C(=O)Nc3c(C)nn(Cc4ccccc4)c3C)c2n1` [compound 33], half-maximal activity (AC50) was put at 39.8 µM and the Emax worked out at 914%. Regarding `Cc1cc(C)n2ccc(C(=O)Nc3cccc(C(=O)O)c3)c2n1` [compound 5], the AC50 was found to be 2.87 µM and the Emax is 175%. On to `Cc1cc(C)n2ccc(C(=O)Nc3ccc4c(c3)CCC4)c2n1` [compound 26], for which half-maximal activity (AC50) was put at 1.12 µM and the Emax was 290%. For the molecule `Cc1cc(C)n2ccc(C(=O)Nc3cccc(CC(C)C)c3)c2n1` [compound 12], the activity was half-maximal at 3.44 µM (AC50) and the Emax was 300%. Take `CCOC(=O)c1ccc(NC(=O)c2ccn3c(C)cc(C)nc23)cc1` [compound 19]: the concentration at half-maximal activity (AC50) worked out at 0.71 µM and the Emax turned out to be 250%. For `Cc1cc(C)n2ccc(C(=O)Nc3cccc(CC(=O)O)c3)c2n1` [compound 2], half-maximal activity (AC50) was put at 30 µM and the Emax stood at 550%. For the molecule `Cc1cc(C)n2ccc(C(=O)Nc3cccc(CCC(=O)ON4C(=O)CCC4=O)c3)c2n1` [compound 38], the AC50 was found to be 4.47 µM and the Emax was 810%.

On to `Cc1cc(C)n2ccc(C(=O)Nc3ccc4c(c3)COC4)c2n1` [compound 25], for which the AC50 stood at 7.94 µM and the Emax came out at 456%. The corresponding values for `Cc1cc(C)n2ccc(C(=O)Nc3cccc(N)c3)c2n1` [compound 7] are 3.39 µM and 210%. `Cc1cc(C)n2ccc(C(=O)Nc3nc4c(s3)CC(C)CC4)c2n1` (stereo not shown) [compound 45]: the activity was half-maximal at 1.78 µM (AC50) and the Emax was 325%.

Molecule `Cc1cc(C)n2ccc(C(=O)Nc3ccc(CCCOCCOCCOCCOCCNC(=O)C4CCCCC4)c(CC(=O)ON4C(=O)CCC4=O)c3)c2n1` [compound 49] yielded an AC50 of 3.55 µM.

Regarding `Cc1cc(C)n2ccc(C(=O)Nc3cccc4c3CCCC4)c2n1` [compound 11], the AC50 was determined as 1.41 µM and the Emax was found to be 400%. For `Cc1cc(C)n2ccc(C(=O)Nc3ccc(C(=O)ON4C(=O)CCC4=O)cc3)c2n1` [compound 28], half-maximal activity (AC50) was put at 50 µM and the Emax came to 115%. Regarding `Cc1cc(C)n2ccc(C(=O)Nc3ccc4c(c3)C(=O)CC4)c2n1` [compound 16], the AC50 was determined as 1.49 µM and the Emax came to 225%. Take `Cc1cc(C)n2ccc(C(=O)Nc3nc4c(s3)CCCC4)c2n1` [compound 44]: the AC50 amounted to 1.58 µM and the Emax was 342%. For `Cc1cc(C)n2ccc(C(=O)Nc3ccc(C(=O)O)cc3)c2n1` [compound 21], the AC50 is 35.5 µM and the Emax was found to be 622%. `Cc1cc(C)n2ccc(C(=O)Nc3ccc(-c4cn(CCOCCOCCO)nn4)c(CC(=O)O)c3)c2n1` [compound 41]: the AC50 amounted to 28.2 µM.

These data come from US10882865B2, “Pyrrolopyrimidine compounds and uses thereof for modulating glucocerebrosidase activity” (Northwestern University, priority 2018, dated 2021).
